In one series the test system is Striatal gangliosides. The series is described as follows: Levels of striatal gangliosides of the rat following injuries by kainic acid. The format is in vivo. The settings on record: Group 3: kainic acid alone, 2 μg into striatum; relative to control = 100%. The method, then: Male rats, Charles River CD, body weight of 180-200 g, have been divided into 4 groups, each group having 20 animals. The first group has been classified as the control group, the second group has been treated with physiological solution, the third group has been treated with kainic acid and the fourth group has been treated with CMP-NANA (20 mg/kg/day, i.p.) and kainic acid.
The treatment with CMP-NANA has been started one week before the treatment with kainic acid and has been continued until the animals have been sacrified.
The animals have been anesthetized with pentobarbital (60 mg/kg i.p.) and then treated with kainic acid (2 μg in 1 μl of the physiological solution), that has been injected into striatum.
The control rats have been treated with an equal volume (1 μl) of the physiological solution.
After 7 days the rats have been sacrified and the striatum has been removed. Each single determination has been performed with the pool of 5 samples. The gangliosides have been extracted and determined (as NANA content) as described previously.

Series [1] is described as follows: Adsorption and distribution of labeled CMP-NANA in the rat. The format is in vivo. The settings on record: 20 mg/kg i.m.; for Radioactivity level: Blood; for tissue uptake at 0.5 h / tissue uptake at 1 h / tissue uptake at 2 h / tissue uptake at 4 h: im, read-out: Radioactivity level. The method, then: CMP-NANA [9-^3 H] has been purchased from NEN (New England Nuclear, 6072 Dreieich, West Germany).
The rats fasting for about 18 hours, have been treated with CMP-NANA, dissolved in the phosphate buffer, at the dose of 20 mg/kg i.m. (specific activity=1000 mCi/mg). After 30 min., 1 hour, 2 hours and 4 hours periods the animals have been sacrified in the groups of 4, then liver, kidney and brain have been taken away from the animals and accurately weighted.
100 μg samples of the previous organs, and an analogous sample of the blood have been dissolved in Soluene 350 (Packard) and have been counted on the scintillation instrument in the liquid phase, on addition of the scintillating liquid.
The measurements have been quantized using a canal to canal-ratio technique. Table 3 illustrates the averaged results of all measurements.

Like-named read-outs stand apart in the source and are kept apart here.

Take `C=C(C)[C@H]1CN[C@H](C(=O)O)[C@H]1CC(=O)O` [kainic acid, reference compound]: the “Striatal gangliosides (NANA content)” value in the series with Striatal gangliosides was 66%.
Take `[3H]C(O)[C@@H](O)[C@@H](O)[C@@H]1O[C@](OP(=O)(O)OC[C@H]2O[C@@H](n3ccc(N)nc3=O)[C@H](O)[C@@H]2O)(C(=O)O)C[C@H](O)[C@H]1NC(C)=O` (stereo partly shown) [[^-3 H]-labeled CMP--NANA]: the “radioactivity decline in blood and organs (in words)” value in series [1] is “rapidly diminished in the blood, and more slowly in the organs”. Moreover, the “radioactivity level of the brain relative to liver and kidney (in words)” value in series [1] is “inferior to those of the liver and kidney”. Also, the Radioactivity level is 12.2 % of the administrated dose pe in series [1] (30 min), 5.7 % of the administrated dose pe in series [1] (1 hr), 3.2 % of the administrated dose pe in series [1] (2 hrs) and 1.9 % of the administrated dose pe in series [1] (4 hrs). Further, the tissue uptake at 0.5 h in series [1] (Brain, 30 min) was 6.2 %ID/g; in series [1] (Kidney, 30 min), 2.6 %ID/g; in series [1] (Liver, 30 min) it was 3.9 %ID/g. Besides, the tissue uptake at 1 h stood at 7.8 %ID/g in series [1] (Brain, 1 hr); 5.2 %ID/g in series [1] (Kidney, 1 hr); 4.7 %ID/g in series [1] (Liver, 1 hr). The tissue uptake at 2 h came out at 4.9 %ID/g in series [1] (Brain, 2 hrs); 3.3 %ID/g in series [1] (Kidney, 2 hrs); 2.8 %ID/g in series [1] (Liver, 2 hrs). Further, the tissue uptake at 4 h in series [1] (Brain, 4 hrs) stood at 2.4 %ID/g; in series [1] (Kidney, 4 hrs), 1.6 %ID/g; in series [1] (Liver, 4 hrs), 0.9 %ID/g.

For the origin of these results see patent US4704361A, “Pharmaceutical compositions containing the cytidine monophospate of 5-acetamido-3,5-dideoxy-D-glycero-D-galactononulosaminic acid and a method for preparing said compound” (Compagnia di Ricerca Chimica S.p.A., priority 1983, dated 1987).
